Results: US9113629B2, “4-amino-6-(4-substituted-phenyl)-picolinates and 6-amino-2-(4-substituted-phenyl)-pyrimidine-4-carboxylates and their use as herbicides” (DOW AGROSCIENCES LLC, priority 2013, dated 2015)
Read-outs that look alike come from different tables or passages of the source.

Legend:
[1] = tested on: Key Broadleaf Weed and Crop Species; experiment: Post-emergent Test II herbicidal activity (Table 5); type: in vivo; conditions: post-emergence, 336 h, 14 days after application; for pest or weed control at 70 g/ha: application rate 70 g ai/ha; for pest or weed control at 140 g/ha: application rate 140 g ai/ha
Procedure, shortened: (§1)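 Percent injury, 0 (none) to 100 (complete kill), was judged visually 14 d after spraying young plants at the first or second true leaf stage with compound in an acetone/DMSO aqueous carrier at 187 L/ha. Plants were kept in a greenhouse at 23–29 °C by day.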

[2] = tested on: Key Grass and Sedge Weeds as well as Grass Crops; experiment: Post-emergent Test II herbicidal activity (Table 6); type: in vivo; conditions: post-emergence, 336 h
Procedure, shortened: as §1

[3] = ABUTH: velvetleaf (Abutilon theophrasti), read-out: Visual Growth Reduction (%) 14 Days After Application, ABUTH
[4] = AMARE: redroot pigweed (Amaranthus retroflexus), read-out: Visual Growth Reduction (%) 14 Days After Application, AMARE
[5] = BRSNN: oilseed-rape, canola (Brassica napus), read-out: Visual Growth Reduction (%) 14 Days After Application, BRSNN
[6] = CHEAL: lambsquarters (Chenopodium album), read-out: Visual Growth Reduction (%) 14 Days After Application, CHEAL
[7] = EPHHL: wild poinsettia (Euphorbia heterophylla), read-out: Visual Growth Reduction (%) 14 Days After Application, EPHHL
[8] = HELAN: sunflower (Helianthus annuus), read-out: Visual Growth Reduction (%) 14 Days After Application, HELAN
[9] = VIOTR: wild pansy (Viola tricolor), read-out: Visual Growth Reduction (%) 14 Days After Application, VIOTR

Nc1cc(-c2ccc(I)c(F)c2F)nc(C(=O)O)c1Cl [Compound 38]
pest or weed control at 70 g/ha [1, 3]: 95 to 100%
pest or weed control at 140 g/ha [1, 3]: 95 to 100%
pest or weed control at 70 g/ha [1, 4]: 85 to 94%
pest or weed control at 140 g/ha [1, 4]: 95 to 100%
pest or weed control at 70 g/ha [1, 5]: 95 to 100%
pest or weed control at 140 g/ha [1, 5]: 95 to 100%
pest or weed control at 70 g/ha [1, 6]: 85 to 94%
pest or weed control at 140 g/ha [1, 6]: 95 to 100%
pest or weed control at 70 g/ha [1, 7]: 95 to 100%
pest or weed control at 140 g/ha [1, 7]: 95 to 100%
pest or weed control at 70 g/ha [1, 8]: 75 to 84%
pest or weed control at 140 g/ha [1, 8]: 85 to 94%
pest or weed control at 70 g/ha [1, 9]: 95 to 100%
pest or weed control at 140 g/ha [1, 9]: 95 to 100%
pest or weed control at 70 g/ha ([2]; Triticum aestivum, TRZSS (wheat), application rate 70 g ai/ha, read-out: Visual Growth Reduction (%) 14 Days After Application, TRZSS): 60 to 74%
pest or weed control at 140 g/ha ([2]; Triticum aestivum, TRZSS (wheat), application rate 140 g ai/ha, read-out: Visual Growth Reduction (%) 14 Days After Application, TRZSS): 60 to 74%
pest or weed control at 70 g/ha ([2]; CYPES: yellow nutsedge (Cyperus esculentus), application rate 70 g ai/ha, read-out: Visual Growth Reduction (%) 14 Days After Application, CYPES): 95 to 100%
pest or weed control at 140 g/ha ([2]; CYPES: yellow nutsedge (Cyperus esculentus), application rate 140 g ai/ha, read-out: Visual Growth Reduction (%) 14 Days After Application, CYPES): 95 to 100%
pest or weed control at 70 g/ha ([2]; DIGSA: crabgrass (Digitaria sanguinalis), application rate 70 g ai/ha, read-out: Visual Growth Reduction (%) 14 Days After Application, DIGSA): 75 to 84%
pest or weed control at 140 g/ha ([2]; DIGSA: crabgrass (Digitaria sanguinalis), application rate 140 g ai/ha, read-out: Visual Growth Reduction (%) 14 Days After Application, DIGSA): 75 to 84%
pest or weed control at 70 g/ha ([2]; ECHCG: barnyardgrass (Echinochloa crus-galli), application rate 70 g ai/ha, read-out: Visual Growth Reduction (%) 14 Days After Application, ECHCG): 95 to 100%
pest or weed control at 140 g/ha ([2]; ECHCG: barnyardgrass (Echinochloa crus-galli), application rate 140 g ai/ha, read-out: Visual Growth Reduction (%) 14 Days After Application, ECHCG): 95 to 100%
pest or weed control at 70 g/ha ([2]; ORYSA: rice (Oryza sativa), application rate 70 g ai/ha, read-out: Visual Growth Reduction (%) 14 Days After Application, ORYSA): 0 to 29%
pest or weed control at 140 g/ha ([2]; ORYSA: rice (Oryza sativa), application rate 140 g ai/ha, read-out: Visual Growth Reduction (%) 14 Days After Application, ORYSA): 0 to 29%
pest or weed control at 70 g/ha ([2]; SETFA: giant foxtail (Setaria faberi), application rate 70 g ai/ha, read-out: Visual Growth Reduction (%) 14 Days After Application, SETFA): 95 to 100%
pest or weed control at 140 g/ha ([2]; SETFA: giant foxtail (Setaria faberi), application rate 140 g ai/ha, read-out: Visual Growth Reduction (%) 14 Days After Application, SETFA): 95 to 100%
pest or weed control at 70 g/ha ([2]; SORVU: grain sorghum (Sorghum vulgare), application rate 70 g ai/ha, read-out: Visual Growth Reduction (%) 14 Days After Application, SORVU): 85 to 94%
pest or weed control at 140 g/ha ([2]; SORVU: grain sorghum (Sorghum vulgare), application rate 140 g ai/ha, read-out: Visual Growth Reduction (%) 14 Days After Application, SORVU): 85 to 94%
pest or weed control at 70 g/ha ([2]; ZEAMX: maize, corn (Zea mays), application rate 70 g ai/ha, read-out: Visual Growth Reduction (%) 14 Days After Application, ZEAMX): 85 to 94%
pest or weed control at 140 g/ha ([2]; ZEAMX: maize, corn (Zea mays), application rate 140 g ai/ha, read-out: Visual Growth Reduction (%) 14 Days After Application, ZEAMX): 95 to 100%
melting point: 288 to 293 °C (dec.)

C#Cc1ccc(-c2nc(N)c(OC)c(C(=O)O)n2)c(F)c1 [Compound 41]
pest or weed control at 70 g/ha [1, 3]: 0 to 29%
pest or weed control at 140 g/ha [1, 3]: 0 to 29%
pest or weed control at 70 g/ha [1, 4]: 0 to 29%
pest or weed control at 140 g/ha [1, 4]: 0 to 29%
pest or weed control at 70 g/ha [1, 5]: 0 to 29%
pest or weed control at 140 g/ha [1, 5]: 45 to 59%
pest or weed control at 70 g/ha [1, 6]: 0 to 29%
pest or weed control at 140 g/ha [1, 6]: 60 to 74%
pest or weed control at 70 g/ha [1, 7]: 0 to 29%
pest or weed control at 140 g/ha [1, 7]: 0 to 29%
pest or weed control at 70 g/ha [1, 8]: 60 to 74%
pest or weed control at 140 g/ha [1, 8]: 75 to 84%
pest or weed control at 70 g/ha [1, 9]: 0 to 29%
pest or weed control at 140 g/ha [1, 9]: 0 to 29%
pest or weed control at 70 g/ha ([2]; CYPES: yellow nutsedge (Cyperus esculentus), 70 g ai/ha, read-out: Visual Growth Reduction (%) 14 Days After Application, CYPES): 0 to 29%
pest or weed control at 140 g/ha ([2]; CYPES: yellow nutsedge (Cyperus esculentus), 140 g ai/ha, read-out: Visual Growth Reduction (%) 14 Days After Application, CYPES): 0 to 29%
pest or weed control at 70 g/ha ([2]; DIGSA: crabgrass (Digitaria sanguinalis), 70 g ai/ha, read-out: Visual Growth Reduction (%) 14 Days After Application, DIGSA): 0 to 29%
pest or weed control at 140 g/ha ([2]; DIGSA: crabgrass (Digitaria sanguinalis), 140 g ai/ha, read-out: Visual Growth Reduction (%) 14 Days After Application, DIGSA): 0 to 29%
pest or weed control at 70 g/ha ([2]; ECHCG: barnyardgrass (Echinochloa crus-galli), 70 g ai/ha, read-out: Visual Growth Reduction (%) 14 Days After Application, ECHCG): 0 to 29%
pest or weed control at 140 g/ha ([2]; ECHCG: barnyardgrass (Echinochloa crus-galli), 140 g ai/ha, read-out: Visual Growth Reduction (%) 14 Days After Application, ECHCG): 0 to 29%
pest or weed control at 70 g/ha ([2]; ORYSA: rice (Oryza sativa), crop, 70 g ai/ha, read-out: Visual Growth Reduction (%) 14 Days After Application, ORYSA): 0 to 29%
pest or weed control at 140 g/ha ([2]; ORYSA: rice (Oryza sativa), crop, 140 g ai/ha, read-out: Visual Growth Reduction (%) 14 Days After Application, ORYSA): 0 to 29%
pest or weed control at 70 g/ha ([2]; SETFA: giant foxtail (Setaria faberi), 70 g ai/ha, read-out: Visual Growth Reduction (%) 14 Days After Application, SETFA): 0 to 29%
pest or weed control at 140 g/ha ([2]; SETFA: giant foxtail (Setaria faberi), 140 g ai/ha, read-out: Visual Growth Reduction (%) 14 Days After Application, SETFA): 0 to 29%
pest or weed control at 70 g/ha ([2]; SORVU: grain sorghum (Sorghum vulgare), 70 g ai/ha, read-out: Visual Growth Reduction (%) 14 Days After Application, SORVU): 0 to 29%
pest or weed control at 140 g/ha ([2]; SORVU: grain sorghum (Sorghum vulgare), 140 g ai/ha, read-out: Visual Growth Reduction (%) 14 Days After Application, SORVU): 0 to 29%
pest or weed control at 70 g/ha ([2]; TRZSS (wheat, Triticum aestivum), crop, 70 g ai/ha, read-out: Visual Growth Reduction (%) 14 Days After Application, TRZSS): 0 to 29%
pest or weed control at 140 g/ha ([2]; TRZSS (wheat, Triticum aestivum), crop, 140 g ai/ha, read-out: Visual Growth Reduction (%) 14 Days After Application, TRZSS): 0 to 29%
pest or weed control at 70 g/ha ([2]; ZEAMX: maize, corn (Zea mays), crop, 70 g ai/ha, read-out: Visual Growth Reduction (%) 14 Days After Application, ZEAMX): 0 to 29%
pest or weed control at 140 g/ha ([2]; ZEAMX: maize, corn (Zea mays), crop, 140 g ai/ha, read-out: Visual Growth Reduction (%) 14 Days After Application, ZEAMX): 0 to 29%
melting point: 155 to 165 °C (dec.)
